Where a name gives a salt, the structure may show the parent alone. Read-outs that look alike come from different tables or passages of the source.
Experiments:
A2780 = test: Anti-proliferative effect (CellTiter-Glo, 72 h), A2780; type: cell-based; settings: A2780 cells, median, read-out: IC50 antiproliferation assay A2780 [M] (median)
Outline: (§1)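 Anti-proliferative activity is derived from ATP-based luminescence (CellTiter-Glo) in cells exposed to compound for 72 h at 37 °C, set against a time zero plate read at seeding.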

SUDHL5 [1] = test: Induction of caspase-3/7 activity (Caspase-Glo 3/7), SUDHL5; type: cell-based; settings: caspase-3/7 induction, SUDHL5 cells, 3 h treatment; median
Outline: (§2)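 Caspase-Glo 3/7 luminescence measured after 3 h compound exposure at 37 °C in SUDHL10 and SUDHL5 cells. EC50 values come from background-corrected signals, with curve bottom set to 1 and plateau set to maximal induction by the reference compound.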

SUDHL10 [2] = test: Induction of cytotoxicity (CellTiter-Glo, 5 h), SUDHL10
MCL-1 = MCL-1 (Homo sapiens, UniProt Q07820); test: Protein-protein interaction assay MCL-1/Noxa BH3 peptide (MCL-1 assay), TR-FRET; type: binding; settings: MBP-MCL-1 / Noxa BH3-derived peptide, median
Outline: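 MBP-MCL-1 (1 nM final) was preincubated 10 min at 22 °C with compounds (11 concentrations, 0.1 nM–20 μM, duplicates) in Tris pH 7 buffer with NaCl, KF, Tween-20, DTT and BGG. After 1 h at 22 °C in the dark plus overnight at 4 °C, anti-MBP Eu-cryptate/streptavidin-XL665 TR-FRET was read; IC50 came from a 4-parameter fit.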

SUDHL5 [3] = test: Anti-proliferative effect (CellTiter-Glo, 72 h), SUDHL5; type: cell-based; settings: SUDHL5 cells, antiproliferation, 72 h incubation, median, read-out: Antiproli SUDHL5 [M] (median)
Outline: as §1

MV-4-11 = test: Anti-proliferative effect (CellTiter-Glo, 72 h), MV-4-11; type: cell-based; settings: MV-4-11 cells, median, read-out: IC50 antiproliferation assay MV-4-11 [M] (median)
Outline: as §1

SUDHL10 [4] = test: Induction of caspase-3/7 activity (Caspase-Glo 3/7), SUDHL10; type: cell-based; settings: caspase-3/7 induction, SUDHL10 cells, 3 h treatment, median
Outline: as §2

SUDHL5 [5] = test: Induction of cytotoxicity (CellTiter-Glo, 5 h), SUDHL5; settings: read-out: Cytotox SUDHL5 [M] (median); SUDHL5 cells, cytotoxicity induction, CellTiter-Glo, 5 h incubation, median
[6] = read-out: Cytotox SUDHL10 [M] (median), SUDHL10 cells, cytotoxicity induction, CellTiter-Glo, 5 h incubation, median
[7] = Homo sapiens, SU-DHL10, 5 h, read-out: Cytotox SUDHL10 [M] (median), SUDHL10 cells, cytotoxicity induction, CellTiter-Glo, 5 h incubation, median

Chain of MCL-1 (Q07820 whole entry): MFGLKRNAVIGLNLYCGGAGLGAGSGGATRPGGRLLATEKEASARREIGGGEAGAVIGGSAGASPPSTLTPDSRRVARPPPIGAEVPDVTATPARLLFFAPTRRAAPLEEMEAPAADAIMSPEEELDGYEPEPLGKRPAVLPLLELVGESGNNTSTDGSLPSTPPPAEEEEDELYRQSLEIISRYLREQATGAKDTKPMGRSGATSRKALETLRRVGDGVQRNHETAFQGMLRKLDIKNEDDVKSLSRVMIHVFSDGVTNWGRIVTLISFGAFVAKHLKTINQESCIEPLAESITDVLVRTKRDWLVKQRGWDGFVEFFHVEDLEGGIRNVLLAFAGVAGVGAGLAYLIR

SMILES | IC50 (A2780) [M] | EC50 (SUDHL5 [1]) [µM] | IC50 (SUDHL10 [2]; [6]) [M] | IC50 (MCL-1) [nM] | IC50 (SUDHL5 [3]) [M] | IC50 (MV-4-11) [M] | EC50 (SUDHL10 [4]) [µM] | IC50 (SUDHL5 [5]) [M] | IC50 (SUDHL10 [2]; [7]) [M] | IC50 (SUDHL5 [3]; Homo sapiens, SU-DHL-5, 72 h) [M] | IC50 (MV-4-11; Homo sapiens, MV4-11, 72 h) [M] | EC50 (SUDHL10 [4]; Homo sapiens, SU-DHL10, 3 h) [µM] | IC50 (A2780; Homo sapiens, A2780, 72 h) [M]
Cn1nc(CC(F)(F)F)c2c1COCCCCn1c(C(=O)O)c(CCCOc3cccc4ccccc34)c3cccc-2c31 (single isomer, unassigned) [Example 221, 1-methyl-7-[3-(naphthalen-1-yloxy)propyl]-3-(2,2,2-trifluoroethyl)-1,10,11,12,13,15-hexahydropyrazolo[4′,3′:9,10][1,6]oxazacycloundecino[8,7,6-hi]indole-8-carboxylic acid-N-ethylethanamine Salt] | 3.28e-05 | > 33 | > 3.3e-05 | 353 | 9.75e-06 | > 3.3e-05 | > 33 | > 3.3e-05 | – | – | – | – | –
CN1CCCCn2c(C(=O)O)c(CCCOc3cccc4ccccc34)c3cccc(c32)-c2c(CC(F)(F)F)nn(C)c2C1 (single isomer, unassigned) [Example 223, 1,14-dimethyl-7-[3-(naphthalen-1-yloxy)propyl]-3-(2,2,2-trifluoroethyl)-10,11,12,13,14,15-hexahydro-1H-pyrazolo[3′,4′:8,9][1,6]diazacycloundecino[10,11,1-hi]indole-8-carboxylic Acid] | > 3.3e-05 | 6.96 | > 3.3e-05 | 4.24 | – | – | – | 8.33e-06 | 2.88e-05 | 9.92e-06 | 1.79e-05 | 26.2 | –
CN1CCCCn2c(C(=O)O)c(CCCOc3cccc4ccccc34)c3cccc(c32)-c2c(CC(F)(F)F)nn(C)c2C1 (single isomer, unassigned) [Example 224, 1,14-dimethyl-7-[3-(naphthalen-1-yloxy)propyl]-3-(2,2,2-trifluoroethyl)-10,11,12,13,14,15-hexahydro-1H-pyrazolo[3′,4′:8,9][1,6]diazacycloundecino[10,11,1-hi]indole-8-carboxylic Acid] | 1.45e-05 | > 33 | 3.2e-05 | 395 | 6.03e-06 | 1.22e-05 | > 33 | > 3.3e-05 | – | – | – | – | –
CN1CCCCn2c(C(=O)O)c(CCCOc3cccc4ccccc34)c3cccc(c32)-c2c(/C=C/F)nn(C)c2C1 (single isomer, unassigned) [Example 226, 3-[(E)-2-fluoroethenyl]-1,14-dimethyl-7-[3-(naphthalen-1-yloxy)propyl]-10,11,12,13,14,15-hexahydro-1H-pyrazolo[3′,4′:8,9][1,6]diazacycloundecino[10,11,1-hi]indole-8-carboxylic Acid] | – | 3.15 | – | 3.02 | 3.15e-06 | – | 14.2 | 3.41e-06 | 3.04e-05 | – | 2.09e-05 | – | > 3.3e-05
CN1CCCCn2c(C(=O)O)c(CCCOc3cccc4ccccc34)c3cccc(c32)-c2c(/C=C/F)nn(C)c2C1 (single isomer, unassigned) [Example 227, 3-[(E)-2-fluoroethenyl]-1,14-dimethyl-7-[3-(naphthalen-1-yloxy)propyl]-10,11,12,13,14,15-hexahydro-1H-pyrazolo[3′,4′:8,9][1,6]diazacycloundecino[10,11,1-hi]indole-8-carboxylic Acid] | 1.65e-05 | > 33 | > 3.3e-05 | 90.9 | 8.96e-06 | 1.66e-05 | > 33 | > 3.3e-05 | – | – | – | – | –
Cn1nc2c(c1OC(F)F)-c1cccc3c(CCCOc4cccc5ccccc45)c(C(=O)O)n(c13)CCCCOC2 (single isomer, unassigned) [Example 235, (−)-3-(difluoromethoxy)-2-methyl-7-[3-(naphthalen-1-yloxy)propyl]-2,10,11,12,13,15-hexahydropyrazolo[4′,3′:9,10][1,6]oxazacycloundecino[8,7,6-hi]indole-8-carboxylic Acid] | – | > 33 | – | 77.9 | – | – | – | > 3.3e-05 | > 3.3e-05 | 1.22e-05 | 2.07e-05 | > 33 | 1.8e-05

— patent publication US10981932B2, “Macrocyclic indole derivatives” (Bayer Aktiengesellschaft, priority 2016, dated 2021)
